# Assay results taken from patent US10406120B2, “Methods and compositions for treating kidney disorders” (Golden Biotechnology Corporation, priority 2013, dated 2019).
# Columns and labels:
# [1] = system: TGF-β1; experiment: FSGS model: TGF-β1 in serum and kidney (ELISA, IHC); format: in vivo, BALB/c mice; conditions: FSGS mice
# Procedure: (§1) Experiments described herein were performed on 8-week-old female BALB/c mice. The FSGS mice were injected intravenously with a single dose of adriamycin (0.1 mg/10 g body weight). The mice were given Compound 1 six hours before adriamycin injection by gavage daily till sacrifice. BALB/c mice intraperitoneal injected with normal saline were used as normal controls, while ASLN mice given vehicle (corn oil) by gavage were used as disease controls. Mice were killed at day 7, 14, or 21 after disease induction, and spleen, renal cortical tissue, and blood samples collected and stored appropriately until analysis. All animal experiments were performed with the ethical approval of the Institutional Animal Care and Use Committee of The National Defense Medical Center, Taiwan and performed according to the ethical rules in the NIH Guide for the Care and Use of Laboratory Animals.
# (§2) For IHC, formalin-fixed and paraffin-embedded renal sections were prepared and incubated with primary antibodies against mouse Desmin (Lab Vision, CA, USA), CD3 (pan-T cell; Serotec, N.C., USA), F4/80 (monocytes/macrophages; Serotec), IL-6 (R&D Systems, MN, USA), NF-κB p65 (Cell Signaling Technology, MA, USA), collagen I, III, and IV (Southern Biotech, AL, USA), or TGF-β1 (Santa Cruz Biotechnology, CA, USA), biotinylated second antibodies (Dako, Glostrup, Denmark), and avidin-biotin-peroxidase complex (Dako). Semi-quantitative evaluation of staining was performed.
# The TGF-β1 protein levels in serum and renal tissue were measured using the commercial ELISA kits (R&D Systems), according to the manufacturer's instructions. Samples were acidified with 1 N HCl and neutralized with 1.2 N NaOH/0.5 M HEPES to assay for the amount of TGF-β1.
# [2] = system: GPx; experiment: FSGS model: GPx activity in the kidney; format: in vivo, BALB/c mice; conditions: FSGS mice, day 7 until day 21, vs control FSGS mice
# Procedure: as §1
# GPx activity in renal tissues was measured using a commercial Glutathione Peroxidase Assay kit (Cayman, Mich., USA) according to the manufacturer's instructions Enzyme activity was expressed relative to the protein concentration of glomerular homogenates.
# [3] = system: MCP-1; experiment: AcP-IgAN model: serum MCP-1 ELISA; format: in vivo, B cell-deficient mice; conditions: AcP-IgAN mice, day 3 until day 28, vs control AcP-IgAN mice; only baseline levels
# Procedure: (§3) B cell-deficient mice (B6.129S2-Igh-6tm1Cgn/J) were obtained from the Academia Sinica (Professor John T. Kung, Institute of Molecular Biology), and maintained at the animal center of the National Defense Medical Center, Taipei, Taiwan. AcP-IgAN was induced in the mice by daily injection of purified IgA anti-phosphorylcholine antibodies and pneumococcal C-polysaccharide (PnC) as described previously (Chao, et al., Kidney Int. 70:283-297; 2006). All animal experiments were performed with the approval of the Institutional Animal Care and Use Committee of The National Defense Medical Center, Taiwan, and were consistent with the NIH Guide for the Care and Use of Laboratory Animals.
# (§4) Serum levels of IL-1β (eBiosceience, CA), IL-6 (eBiosceience), IL-18 (MBL, Japan), and MCP-1 (eBiosceience) were measured using commercial ELISA kits according to the manufacturer's instructions.
# [4] = system: desmin; experiment: FSGS model: podocyte injury, desmin IHC; format: in vivo, BALB/c mice; conditions: FSGS mice
# Procedure: as §1, with “All animal experiments were performed with the ethical approval of the Institutional Animal Care and Use Committee of The National Defense Medical Center, Taiwan and performed according to the ethical rules in the NIH Guide for the Care and Use of Laboratory Animals.” left out
# as §2
# [5] = system: superoxide anion; experiment: FSGS model: superoxide anion / ROS determination (lucigenin, DHE); format: in vivo, BALB/c mice; conditions: FSGS mice
# Procedure: as §1
# Kidney in-situ superoxide anion production was determined by DHE labeling according to the known method. (Wu, et al., Nephrol Dial Transplant, 2008, 23: 3082-3090, or Ka, et al., J. Am. Soc. Nephrol. 2007, 18:2473-2485) Fluorescent images were quantified by counting the percentage of positive nuclei in the total nuclei per kidney cross section. Sera and kidney tissues were assessed for superoxide anion according to the known method. (Wu, et al., J Pineal Res, 2001, 30: 147-156, or Ka, et al., J. Am. Soc. Nephrol. 2007, 18:2473-2485) For ROS levels of serum, urine, and renal tissue, the samples were incubated with Krebs-HEPES buffer, and lucigenin (Sigma-Aldrich Chemical Co, MO) at 1.25 mM was used as substrate. Luminescence counts were obtained in duplicate at 15 sec intervals by a microplate luminometer (Hidex Microplate Luminometer, Finland), as previously described (Kretzler, et al.,. Virchows Arch, 425: 181-193, 1994). The superoxide anion activity was expressed as relative luminescence units (RLU) per 15 min per mg of organ dry weight (i.e., RUL/15 min/mg) or RLU/15 min/ml.
# [6] = system: IL-6; experiment: AcP-IgAN model: serum IL-6 ELISA; format: in vivo, B cell-deficient mice; conditions: AcP-IgAN mice
# Procedure: as §3, §4
# [7] = FSGS model: renal histopathology (H&E); format: in vivo, BALB/c mice; conditions: FSGS mice, 50 mg/kg by gavage daily, day 14 to day 21, vs control FSGS mice
# Procedure: as §1, with “The mice were given Compound 1 six hours before adriamycin injection by gavage daily till sacrifice.” left out
# Formalin-fixed and paraffin-embedded renal sections were prepared as described in Shui et al. for renal pathologic evaluation. (Shui, et al., Transl Res, 150: 216-222, 2007) Renal pathology and scoring of renal lesions were performed according to the known method disclosed in Shui. […] The number of glomeruli with EPHLs was expressed as a percentage of the total number of evaluated glomeruli according to methods disclosed before (see for example, Shui, et al., Nephrol Dial Transplant, 21: 1794-1802, 2006; Ka, et al., Nephrol Dial Transplant, 21: 288-298, 2006).
# [8] = day 14 and day 21, vs control FSGS mice
structure (smiles),measurement,setting,value
"COC1=C(OC)[C@H](O)[C@H](C/C=C(\C)CC/C=C(\C)CCC=C(C)C)[C@@H](C)C1=O [Compound 1, Antroquinonol]",TGF-β1 protein levels in kidney (ELISA),[1]; [8],greatly abrogated
same,TGF-β1 protein levels in serum (ELISA),[1]; [8],greatly abrogated
same,TGF-β1 protein expression in the kidney (IHC),[1]; vs control FSGS mice,significantly lower
same,GPx activity in the kidney,[2],recovered GPx activity
same,serum levels of MCP-1 (elevation),[3],greatly inhibited
same,expression of desmin (IHC),"[4]; day 21, compared to normal control mice",mild desmin expression levels
same,expression of desmin (IHC),"[4]; days 14 and 21, vs control FSGS mice",significantly reduced
same,superoxide anion levels in urine,"[5]; day 7 to day 21, vs control FSGS mice",significantly lowered
same,serum superoxide anion levels,"[5]; day 7 to day 21, vs control FSGS mice, to a level similar to normal control",effectively attenuated
same,in-situ ROS production in renal tissue (DHE fluorescence),[5]; day 14 and day 21,only very low DHE fluorescence
same,superoxide anion levels in the kidney,"[5]; day 14 and day 21, vs control FSGS mice, to a level similar to normal control",effectively attenuated
same,serum IL-6 levels,"[6]; day 3, between control AcP-IgAN, AcP-IgAN+Antroq and normal control mice",no difference
same,serum levels of IL-6,"[6]; day 28, vs control AcP-IgAN mice",substantially decreased
same,"progressive renal lesions (sclerotic lesions, glomeruli containing EPHL, peri-glomerular mononuclear leukocyte infiltration), H&E",[7],greatly reduced
